The test concerns the target T1, human tryptase beta-2 (hTPSB2) (Homo sapiens, UniProt P20231).
T1 construct: gene TPSB2
Kind of test: biochemical.

T1 sequence (P20231 31-275): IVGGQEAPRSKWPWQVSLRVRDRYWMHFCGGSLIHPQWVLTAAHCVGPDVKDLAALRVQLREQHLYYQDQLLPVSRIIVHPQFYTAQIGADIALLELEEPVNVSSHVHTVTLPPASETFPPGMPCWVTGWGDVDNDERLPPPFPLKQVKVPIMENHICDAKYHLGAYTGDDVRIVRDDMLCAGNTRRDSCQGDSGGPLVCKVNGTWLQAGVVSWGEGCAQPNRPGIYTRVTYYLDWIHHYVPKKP

Usually Kd stands for the concentration at which binding is half-saturated. Higher therefore signals weaker binding. In turn, `C[Si](C)(O[Si](C)(C)c1coc2ccc(C(=O)N3CCC(c4cccc(CN)c4)CC3)cc12)c1coc2ccc(C(=O)N3CCC(c4cccc(CN)c4)CC3)cc12` [#2d, compound #2d] registered a Kd of 2.1 nM.
For `C[Si](C)(O)c1coc2ccc(C(=O)N3CCC(c4cccc(CN)c4)CC3)cc12` [#2m, compound #2m], the dissociation constant Kd was 81 nM.

The values above are taken from PMC11944677, “Integrating Surface Plasmon Resonance and Docking Analysis for Mechanistic Insights of Tryptase Inhibitors” (Molecules, 2025).
